Reference: patent publication US20110143939A1, “QUINOXALIN-2-ONE DERIVATIVES, COMPOSITIONS WHICH PROTECT USEFUL PLANTS AND COMPRISE THESE DERIVATIVES, AND PROCESSES FOR THEIR PREPARATION AND THEIR USE” (Bayer CropScience AG, priority 2004, published 2011)

Compared with O=c1c(-c2cccs2)nc2ccccc2n1CC1CCCO1 (centres unmarked), O=c1c(-c2cccs2)nc2ccccc2n1CC1CCC1 is lower in melting point: 123 °C for the first, 103 °C for the second.

Compared with O=c1[nH]c2cc3c(cc2nc1-c1ccccc1)OC(F)(F)O3, Cn1c(=O)c(-c2ccccc2)nc2cc3c(cc21)OC(F)(F)O3 is lower in melting point: 291 to 292 °C for the first, 165 °C for the second.

First: Cn1c(=S)c(-c2cccs2)nc2ccccc21
Second: Nn1c(=O)c(-c2cccs2)nc2ccccc21
The melting point of the first is lower: 113 °C for the first, 164 °C for the second.

CS(=O)(=O)NCCn1c(=O)c(-c2cccs2)nc2ccccc21 gave a melting point of 236 to 237 °C.

Compound Cl.NCCn1c(=O)c(-c2cccs2)nc2ccccc21 has a melting point greater than 250 °C.
